Test results from patent US20120053053A1, “PYRIMIDINE DERIVATIVES AND THEIR USE AS HERBICIDES” (SYNGENTA CROP PROTECTION, LLC, priority 2009, published 2012).

What was measured:
[1] = system: Ipomea hederaceae (IPOHE); assay: Post-emergence biological efficacy (percentage damage); format: in vivo; details: Ipomoea hederacea, 312 h, dose 1,000 g/ha, evaluated after 13 days, 100=total damage, 0=no damage
Method in brief: (§1)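 Seedlings grown 8 days in soil in a glasshouse (24/16 °C day/night, 14 h light, 65% humidity), then sprayed with compound in acetone/water (50:50) with 0.5% Tween 20 at 250 or 1000 g/ha. Damage scored visually after 13 days (0 = none, 100 = total).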

[2] = system: Solanum nigrum (SOLNI); assay: as above; format: in vivo; details: Solanum nigrum, 312 h, dose 1,000 g/ha, evaluated after 13 days, 100=total damage, 0=no damage
Method in brief: as §1

[3] = system: Amaranthus retoflexus (AMARE); assay: as above; format: in vivo; details: Amaranthus retroflexus, 312 h, dose 1,000 g/ha, evaluated after 13 days, 100=total damage, 0=no damage
Method in brief: as §1

[4] = system: Alopecurus myosuroides (ALOMY); assay: as above; format: in vivo; details: Alopecurus myosuroides, 312 h, dose 1,000 g/ha, evaluated after 13 days, 100=total damage, 0=no damage
Method in brief: as §1

[5] = system: Setaria faberi (SETFA); assay: as above; format: in vivo; details: Setaria faberi, 312 h, dose 1,000 g/ha, evaluated after 13 days, 100=total damage, 0=no damage
Method in brief: as §1

[6] = system: Echinochloa crus-galli (ECHCG); assay: as above; format: in vivo; details: Echinochloa crus-galli, 312 h, dose 1,000 g/ha, evaluated after 13 days, 100=total damage, 0=no damage
Method in brief: as §1

[7] = system: Ipomea hederaceae (IPOHE); assay: Pre-emergence biological efficacy (percentage damage); format: in vivo; details: Ipomoea hederacea, 312 h, dose 1,000 g/ha, evaluated after 13 days, 100=total damage, 0=no damage
Method in brief: (§2)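 Percentage damage (100 = total, 0 = none) was assessed 13 days after treatment. Compound was sprayed at a final dose of 250 or 1000 g/ha onto soil sown one day earlier, with plants kept under controlled glasshouse conditions (24/16 °C, 14 h light, 65% humidity).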

[8] = system: Solanum nigrum (SOLNI); assay: as above; format: in vivo; details: Solanum nigrum, 312 h, dose 1,000 g/ha, evaluated after 13 days, 100=total damage, 0=no damage
Method in brief: as §2

[9] = system: Amaranthus retoflexus (AMARE); assay: as above; format: in vivo; details: Amaranthus retroflexus, 312 h, dose 1,000 g/ha, evaluated after 13 days, 100=total damage, 0=no damage
Method in brief: as §2

[10] = system: Alopecurus myosuroides (ALOMY); assay: as above; format: in vivo; details: Alopecurus myosuroides, 312 h, dose 1,000 g/ha, evaluated after 13 days, 100=total damage, 0=no damage
Method in brief: as §2

[11] = system: Setaria faberi (SETFA); assay: as above; format: in vivo; details: Setaria faberi, 312 h, dose 1,000 g/ha, evaluated after 13 days, 100=total damage, 0=no damage
Method in brief: as §2

[12] = system: Echinochloa crus-galli (ECHCG); assay: as above; format: in vivo; details: Echinochloa crus-galli, 312 h, dose 1,000 g/ha, evaluated after 13 days, 100=total damage, 0=no damage
Method in brief: as §2

| melting point [°C] | SMILES | pest or weed control at 1000 g/ha [1] [%] | pest or weed control at 1000 g/ha [2] [%] | pest or weed control at 1000 g/ha [3] [%] | pest or weed control at 1000 g/ha [4] [%] | pest or weed control at 1000 g/ha [5] [%] | pest or weed control at 1000 g/ha [6] [%] | pest or weed control at 1000 g/ha [7] [%] | pest or weed control at 1000 g/ha [8] [%] | pest or weed control at 1000 g/ha [9] [%] | pest or weed control at 1000 g/ha [10] [%] | pest or weed control at 1000 g/ha [11] [%] | pest or weed control at 1000 g/ha [12] [%] |
| --- | --- | --- | --- | --- | --- | --- | --- | --- | --- | --- | --- | --- | --- |
| 122 to 123 | C=Cc1c(N)nc(-c2ccc(C)cc2)nc1C(=O)OC [Compound 36-61, 4-amino-5-ethenyl-6-methoxycarbonyl-2-(4-methylphenyl)-pyrimidine] | 90 | 80 | 100 | 70 | 80 | 90 | 100 | 100 | 100 | 70 | 80 | 90 |
| 156 to 158 | COC(=O)c1nc(-c2ccc(Cl)c(N(C)C)c2F)nc(N)c1C1CC1 [Compound 33-58, 4-amino-2-(4-chloro-3-dimethylamino-2-fluorophenyl)-5-cyclopropyl-6-methoxycarbonylpyrimidine] | 0 | 10 | 10 | 10 | 60 | 10 | 0 | 0 | 0 | 0 | 0 | 0 |
| 107 to 108 | C=Cc1c(OC)nc(-c2ccc(Cl)c(OC)c2F)nc1C(=O)OC [Compound 27-398, 2-(4-chloro-2-fluoro-3-methoxyphenyl)-5-ethenyl-4-methoxy-6-methoxycarbonyl-pyrimidine] | 40 | 20 | 0 | 0 | 0 | 0 | 0 | 0 | 0 | 0 | 0 | 0 |
| 152 to 153 | COC(=O)c1nc(C2CC2)nc(N)c1C [Compound 2-41] | 100 | 90 | 100 | 40 | 80 | 60 | 60 | 50 | 70 | 20 | 30 | 20 |
